IC50 data for 28 compounds are collected here from patent publication US8361998B2, “Compounds and their use as IKACh blockers” (AstraZeneca AB, priority 2010, dated 2013).

Read-outs that look alike come from different tables or passages of the source.

The assay addresses T1, human cardiac ion channel proteins hKir3.1/Kir3.4 (Homo sapiens, UniProt P48544+P48549).
T1 construct: expressed in transfected cells
T1 sequence (P48549 1-501): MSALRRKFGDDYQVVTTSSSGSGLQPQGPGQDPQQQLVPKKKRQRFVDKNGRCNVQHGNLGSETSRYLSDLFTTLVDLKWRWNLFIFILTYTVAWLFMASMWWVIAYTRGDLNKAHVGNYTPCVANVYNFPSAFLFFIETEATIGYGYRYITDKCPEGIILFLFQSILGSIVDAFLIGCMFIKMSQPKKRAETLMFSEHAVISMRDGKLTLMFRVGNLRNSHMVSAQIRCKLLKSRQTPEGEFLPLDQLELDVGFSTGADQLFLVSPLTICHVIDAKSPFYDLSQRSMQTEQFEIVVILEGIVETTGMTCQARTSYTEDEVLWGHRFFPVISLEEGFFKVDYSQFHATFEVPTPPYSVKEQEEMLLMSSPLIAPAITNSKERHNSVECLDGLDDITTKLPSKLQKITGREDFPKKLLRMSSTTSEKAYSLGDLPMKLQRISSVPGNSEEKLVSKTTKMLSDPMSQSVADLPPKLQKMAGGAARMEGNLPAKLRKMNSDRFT
T1 sequence (P48544 1-419): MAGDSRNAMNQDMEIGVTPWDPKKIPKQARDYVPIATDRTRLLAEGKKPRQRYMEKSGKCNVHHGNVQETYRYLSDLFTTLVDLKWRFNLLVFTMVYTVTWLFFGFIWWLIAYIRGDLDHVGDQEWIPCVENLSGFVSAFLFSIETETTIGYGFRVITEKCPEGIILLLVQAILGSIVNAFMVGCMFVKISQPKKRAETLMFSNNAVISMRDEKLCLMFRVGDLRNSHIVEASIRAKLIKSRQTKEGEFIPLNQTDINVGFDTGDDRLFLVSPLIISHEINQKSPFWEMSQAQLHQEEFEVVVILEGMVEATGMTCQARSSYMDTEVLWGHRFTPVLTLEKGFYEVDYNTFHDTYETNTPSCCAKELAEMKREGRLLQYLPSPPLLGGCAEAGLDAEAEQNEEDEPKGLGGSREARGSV
Briefly: Atomic Absorption Screening (AAS) Rb efflux assay of hKir3.1/Kir3.4 block, carbachol/high K+ stimulated, 10-pt or 7-pt CR. It is filed as cell-based. Particulars: AAS Rb efflux, CHO-K1 cells expressing hKir3.1/Kir3.4. An outline of the steps: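 CHO-K1 cells stably co-expressing human Kir3.1/Kir3.4 were Rb-loaded for 3 h at 37° C, preincubated with compound 5 min at RT, then stimulated 10 min with 10 μM carbachol plus 20 mM KCl (final). Supernatant Rb was measured by atomic absorption. Compounds ran at 0.003–67 μmol/L (10-pt) or 0.037–27 μmol/L (7-pt), threefold dilutions; IC50s are means of >4 or >3 replicates respectively.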

Where [1] appears, read: 10-pt CR (0.003 to 67 μmol/L), mean of >4 replicates, read-out: IKACh IC50 10-pt CR, AAS.
The mark [2] stands for this setting: 7-pt CR (0.037 to 27 μmol/L), mean of >3 replicates, read-out: IKACh IC50 7-pt CR, AAS.

The IC50 is the concentration that inhibits the measured activity by half.

For `CN(C(=O)c1ccc(Cl)cc1)C(C)(C)CN1CCCC1` [Example 16.6, 4-Chloro-N-methyl-N-(2-methyl-1-(pyrrolidin-1-yl)propan-2-yl)benzamide], the IC50 under setting [1] turned out to be 20 µM.
Consider `CN(C(=O)c1ccc(Br)cc1)C(C)(C)CN1CCCC1` [Example 16.7, 4-Bromo-N-methyl-N-(2-methyl-1-(pyrrolidin-1-yl)propan-2-yl)benzamide], for which the IC50 under setting [1] is 14 µM.
Turning to `CC(C)[C@@H](CN1CCCC1)N(C)C(=O)c1cc(F)cc(C(F)(F)F)c1` [Example 16.8, (S)-3-Fluoro-N-methyl-N-(3-methyl-1-(pyrrolidin-1-yl)butan-2-yl)-5-(trifluoromethyl)benzamide], under setting [2], the IC50 came out at 8 µM.
Take `CC(C)[C@@H](CN1CCCC1)N(C)C(=O)c1cc(F)cc(F)c1F` [Example 16.9, (S)-2,3,5-Trifluoro-N-methyl-N-(3-methyl-1-(pyrrolidin-1-yl)butan-2-yl)benzamide]: the IC50 was 3.9 µM under setting [2] and 14 µM under setting [1].
For `CC(C)[C@@H](CN1CCCC1)N(C)C(=O)c1cccc(C(F)(F)F)c1` [Example 16.10, (S)—N-Methyl-N-(3-methyl-1-(pyrrolidin-1-yl)butan-2-yl)-3-(trifluoromethyl)benzamide], under setting [2], the IC50 amounted to 2.6 µM.
Still for that read-out and setting: in the case of `COc1cc(C(=O)N(C)[C@H](CN2CCCC2)C(C)C)ccc1F` [Example 16.11, (S)-4-Fluoro-3-methoxy-N-methyl-N-(3-methyl-1-(pyrrolidin-1-yl)butan-2-yl)benzamide] it was 11 µM.
Consider `CC(C)[C@@H](CN1CCCC1)N(C)C(=O)c1cc(F)cc(F)c1` [Example 16.12, (S)-3,5-Difluoro-N-methyl-N-(3-methyl-1-(pyrrolidin-1-yl)butan-2-yl)benzamide], for which the IC50 under setting [2] worked out at 23 µM and the IC50 under setting [1] was 15 µM.
In the same order, the values of `Cc1c(F)cccc1C(=O)N(C)[C@H](CN1CCCC1)C(C)C` [Example 16.13, (S)-3-Fluoro-N,2-dimethyl-N-(3-methyl-1-(pyrrolidin-1-yl)butan-2-yl)benzamide] are 5.3 µM and 14 µM.
With `Cc1ccc(C(=O)N(C)[C@H](CN2CCCC2)C(C)C)cc1` [Example 16.14, (S)—N,4-Dimethyl-N-(3-methyl-1-(pyrrolidin-1-yl)butan-2-yl)benzamide], the IC50 under setting [2] is 6.7 µM.
The same measure, in the same setting: with `CC(C)[C@@H](CN1CCCC1)N(C)C(=O)c1ccc(OC(F)(F)F)cc1` [Example 16.15, (S)—N-Methyl-N-(3-methyl-1-(pyrrolidin-1-yl)butan-2-yl)-4-(tri-fluoromethoxy)benzamide] the figure was 2.5 µM.
The same measure, in the same setting: with `CC(C)[C@@H](CN1CCCC1)N(C)C(=O)c1cccc(OC(F)(F)F)c1` [Example 16.16, (S)—N-Methyl-N-(3-methyl-1-(pyrrolidin-1-yl)butan-2-yl)-3-(tri-fluoromethoxy)benzamide] the figure was 2.6 µM; with `CC(C)[C@@H](CN1CCCC1)N(C)C(=O)c1cccc(Cl)c1F` [Example 16.17, (S)-3-Chloro-2-fluoro-N-methyl-N-(3-methyl-1-(pyrrolidin-1-yl)butan-2-yl)benzamide], 1.2 µM; with `CC(C)[C@@H](CN1CCCC1)N(C)C(=O)c1ccccc1F` [Example 16.18, (S)-2-Fluoro-N-methyl-N-(3-methyl-1-(pyrrolidin-1-yl)butan-2-yl)benzamide], 11 µM.
Still for that read-out and setting: with `CC(C)[C@@H](CN1CCCC1)N(C)C(=O)c1c(F)cccc1C(F)(F)F` [Example 16.19, (S)-2-Fluoro-N-methyl-N-(3-methyl-1-(pyrrolidin-1-yl)butan-2-yl)-6-(trifluoromethyl)benzamide] the figure was 14 µM; with `CC(C)[C@@H](CN1CCCC1)N(C)C(=O)c1ccccc1C(F)(F)F` [Example 16.20, (S)—N-Methyl-N-(3-methyl-1-(pyrrolidin-1-yl)butan-2-yl)-2-(trifluoromethyl)benzamide], 14 µM.
As to `CC(C)[C@@H](CN1CCCC1)N(C)C(=O)c1cc(F)c(F)c(F)c1` [Example 16.21, (S)-3,4,5-Trifluoro-N-methyl-N-(3-methyl-1-(pyrrolidin-1-yl)butan-2-yl)benzamide], the IC50 under setting [2] came to 12 µM.
On the same count and under the same terms, in the case of `CC(C)[C@@H](CN1CCCC1)N(C)C(=O)c1cc(F)ccc1F` [Example 16.22, (S)-2,5-Difluoro-N-methyl-N-(3-methyl-1-(pyrrolidin-1-yl)butan-2-yl)benzamide] it was 18 µM.
Regarding `CC(C)[C@@H](CN1CCCC1)N(C)C(=O)c1ccc(F)cc1C(F)(F)F` [Example 16.23, (S)-4-Fluoro-N-methyl-N-(3-methyl-1-(pyrrolidin-1-yl)butan-2-yl)-2-(trifluoromethyl)benzamide], the IC50 under setting [2] is 6.7 µM.
With `CC(C)[C@@H](CN1CCCC1)N(C)C(=O)c1c(F)cccc1F` [Example 16.24, 2,6-Difluoro-N-methyl-N-[(1S)-2-methyl-1-(pyrrolidin-1-ylmethyl)propyl]benzamide], the IC50 was more than 27 µM under setting [2] and 9.8 µM under setting [1].
`Cc1cc(C(=O)N(C)[C@H](CN2CCCCC2)C(C)C)ccc1Cl` [Example 16.25, 4-Chloro-N,3-dimethyl-N-[(1S)-2-methyl-1-(piperidin-1-ylmethyl)propyl]benzamide]: under setting [2], the IC50 stood at 2.8 µM.
On the same count and under the same terms, with `CC(C)[C@@H](CN1CCCCC1)N(C)C(=O)c1ccc(F)cc1Cl` [Example 16.26, 2-Chloro-4-fluoro-N-methyl-N-[(1S)-2-methyl-1-(piperidin-1-yl-methyl)propyl]benzamide] the figure was 4.8 µM; with `CC(C)[C@@H](CN1CCCCC1)N(C)C(=O)c1ccc(Br)cc1` [Example 16.27, 4-Bromo-N-methyl-N-[(1S)-2-methyl-1-(piperidin-1-ylmethyl)propyl]benzamide], 4 µM; with `CC(C)[C@@H](CN1CCCCC1)N(C)C(=O)c1ccc(Cl)c(Cl)c1` [Example 16.28, 3,4-Dichloro-N-methyl-N-[(1S)-2-methyl-1-(piperidin-1-ylmethyl)propyl]benzamide], 0.84 µM.
`Cc1cccc(C(=O)N(C)[C@H](CN2CCCCC2)C(C)C)c1` [Example 16.29, N,3-Dimethyl-N-[(1S)-2-methyl-1-(piperidin-1-ylmethyl)propyl]benzamide]: the IC50 is, setting by setting: under setting [2], 8.8 µM; under setting [1], 9.3 µM.
Regarding `CC(C)[C@@H](CN1CCCCC1)N(C)C(=O)c1ccc(Cl)cc1Cl` [Example 16.30, 2,4-Dichloro-N-methyl-N-[(1S)-2-methyl-1-(piperidin-1-ylmethyl)propyl]benzamide], under setting [2], the IC50 is 1.7 µM.
Still for that read-out and setting: with `CC(C)[C@@H](CN1CCCCC1)N(C)C(=O)c1ccc(Cl)cc1F` [Example 16.31, 4-Chloro-2-fluoro-N-methyl-N-[(1S)-2-methyl-1-(piperidin-1-ylmethyl)propyl]-benzamide] the figure was 2.4 µM.
For `CC(C)[C@@H](CN1CCCCC1)N(C)C(=O)c1cccc(C(F)(F)F)c1` [Example 16.32, N-Methyl-N-[(1S)-2-methyl-1-(piperidin-1-ylmethyl)propyl]-3-(trifluoromethyl)-benzamide], the IC50 under setting [2] turned out to be 4 µM.
On the same count and under the same terms, with `CC(C)[C@@H](CN1CCCCC1)N(C)C(=O)c1ccc(F)c(Cl)c1` [Example 16.33, 3-Chloro-4-fluoro-N-methyl-N-[(1S)-2-methyl-1-(piperidin-1-ylmethyl)propyl]-benzamide] the figure was 6.7 µM.
